The values that follow come from patent publication US20240199618A1, “NOVEL N-ACYL-[3-SUBSTITUTED]-[8-SUBSTITUTED]-5,6-DIHYDRO-[1,2,4]TRIAZOLO[4,3-a]PYRAZINES AS SELECTIVE NK-3 RECEPTOR ANTAGONISTS, PHARMACEUTICAL COMPOSITION, METHODS FOR USE IN NK-3 RECEPTOR-MEDIATED DISORDERS” (Ogeda SA, priority 2013, published 2024).

Like-named read-outs stand apart in the source and are kept apart here. Where only a bound is given, the exact number is not on record here.

One data set deals with human NK-2 receptor (Homo sapiens (Human), UniProt P21452). Kind of data set: Selectivity assay: [125I]-Neurokinin A binding, human NK-2 receptor. The settings on record: 0.1 nM [125I]-Neurokinin A, CHO membranes; read-out: hNK-2 (Ki). Here is the method: The affinity of compounds of the invention for the NK-2 receptor was evaluated in CHO recombinant cells which express the human NK-2 receptor. Membrane suspensions were prepared from these cells. […] Binding assays were performed in a 25 mM HEPES/1 mM CaCl2)/5 mM MgCl2/0.5% BSA/10 μg/ml saponin, at pH 7.4. […] The radioactivity retained on the filters was measured by using the TopCount-NXT reader (Packard).

The subject of another data set is plasma protein. The data set is described as follows: Determination of plasma protein binding (equilibrium dialysis, RED). Type of data set: in vitro ADME. The settings on record: 4 hours at 37° C. The text has this:
Determination of plasma protein binding The pharmacokinetic and pharmacodynamic properties of chemicals/drugs are largely a function of the reversible binding of chemicals to plasma or serum proteins. […] Consequently, the extent of the plasma protein binding (PPB) of a compound influences its action as well as its distribution and elimination.
The determination of plasma protein binding (PPB) of a compound is enabled by equilibrium dialysis, an accepted and standard method for reliable estimation of the non-bound drug fraction in plasma. RED (Rapid Equilibrium Dialysis) device insert is made of two side-by-side chambers separated by an O-ring-sealed vertical cylinder of dialysis membrane (MWCO ˜8,000). […] After 4 hours incubation at 37° C. under shaking, an aliquot is removed from each chamber and analyzed by a LC-MS/MS procedure enables the determination of both free and bound drug.
The “free fraction” may be calculated as 100%−% rPPB (i.e. the complementary percentage of that disclosed in Table 4, corresponding to the drug concentration that is unbound and therefore available to engage biological target and elicit pharmacological activity).
(In general: In equilibrium dialysis only unbound substance equilibrates across the membrane.)

The target of data set [1] is T1, human NK-3 receptor (Homo sapiens (Human), UniProt P29371). Kind of data set: 3H-SB222200 binding competition assay with human NK-3 receptor. Here is the method:
The affinity of compounds of the invention for the human NK-3 receptor was determined by measuring the ability of compounds of the invention to competitively and reversibly displace a well-characterized NK-3 radioligand in a concentration-dependent manner.
^3H-SB222200 Binding Competition Assay with Human NK-3 Receptor
Membranes were prepared from Chinese hamster ovary recombinant cells stably expressing the human NK-3 receptor. The membranes were incubated with 5 nM ^3H-SB222200 (ARC) in a HEPES 25 mM/NaCl 0.1M/CaCl2 1 mM/MgCl2 5 mM/BSA 0.5%/Saponin 10 μg/ml buffer at pH 7.4 and various concentrations of compounds of the invention. The amount of ^3H-SB222200 bound to the receptor was determined after filtration by the quantification of membrane associated radioactivity using the TopCount-NXT reader (Packard).

The target in a further data set is human NK-1 receptor (Homo sapiens (Human), UniProt P25103). Kind of data set: Selectivity assay: [3H] substance P binding, human NK-1 receptor. The settings on record: 2 nM [3H] substance P, CHO membranes; read-out: hNK-1 (Ki). On the procedure: Selectivity of the compounds of the invention was determined over the other human NK receptors, namely NK-1 and NK-2 receptors.
The affinity of compounds of the invention for the NK-1 receptor was evaluated in CHO recombinant cells which express the human NK-1 receptor. Membrane suspensions were prepared from these cells. The following radioligand: [^3H] substance P (PerkinElmer Cat #NET111520) was used in this assay. Binding assays were performed in a 50 mM Tris/5 mM MnCl2/150 mM NaCl/0.1% BSA at pH 7.4. Binding assays consisted of 25 μl of membrane suspension (approximately 5 μg of protein/well in a 96 well plate), 50 μl of compound or reference ligand (Substance P) at increasing concentrations (diluted in assay buffer) and 2 nM [^3H] substance P. The plate was incubated 60 min at 25° C. in a water bath and then filtered over GF/C filters (Perkin Elmer, 6005174, presoaked in 0.5% PEI for 2 h at room temperature) with a Filtration unit (Perkin Elmer). The radioactivity retained on the filters was measured by using the TopCount-NXT reader (Packard).

Data set [2] deals with T1, human NK-3 receptor. The data set is described as follows: Aequorin functional assay with human NK-3 receptor (antagonist testing vs NKA). Type of data set: cell-based. The settings on record: CHO cells, NKA at EC80 (3 nM); read-out: Functional assay: Aequorin assay with human NK-3 receptor hNK-3-AEQ (antagonist IC50). On the procedure:
Aequorin Assay with Human NK-3 Receptor
Changes in intracellular calcium levels are a recognized indicator of G protein-coupled receptor activity. The efficacy of compounds of the invention to inhibit NKA-mediated NK-3 receptor activation was assessed by an in vitro Aequorin functional assay. Chinese Hamster Ovary recombinant cells expressing the human NK-3 receptor and a construct that encodes the photoprotein apoaequorin were used for this assay. In the presence of the cofactor coelenterazine, apoaequorin emits a measurable luminescence that is proportional to the amount of intracellular (cytoplasmic) free calcium.
The antagonist activity of compounds of the invention is measured following pre-incubation (3 minutes) of the compound (at various concentrations) with the cells, followed by addition of the reference agonist (NKA) at a final concentration equivalent to the EC80 (3 nM) and recording of emitted light (FDSS 6000 Hamamatsu) over the subsequent 90-second period. The intensity of the emitted light is integrated using the reader software. Compound antagonist activity is measured based on the concentration-dependent inhibition of the luminescence response to the addition of Neurokinin A.

Where [3] appears, read: Table 2, 5 nM 3H-SB222200, CHO membranes, read-out: Competitive binding assay with human NK-3 receptor hNK-3 (Ki).
[4] abbreviates: Table 3 (selectivity table), read-out: hNK-3 (Ki).

T1 sequence (P29371 whole entry): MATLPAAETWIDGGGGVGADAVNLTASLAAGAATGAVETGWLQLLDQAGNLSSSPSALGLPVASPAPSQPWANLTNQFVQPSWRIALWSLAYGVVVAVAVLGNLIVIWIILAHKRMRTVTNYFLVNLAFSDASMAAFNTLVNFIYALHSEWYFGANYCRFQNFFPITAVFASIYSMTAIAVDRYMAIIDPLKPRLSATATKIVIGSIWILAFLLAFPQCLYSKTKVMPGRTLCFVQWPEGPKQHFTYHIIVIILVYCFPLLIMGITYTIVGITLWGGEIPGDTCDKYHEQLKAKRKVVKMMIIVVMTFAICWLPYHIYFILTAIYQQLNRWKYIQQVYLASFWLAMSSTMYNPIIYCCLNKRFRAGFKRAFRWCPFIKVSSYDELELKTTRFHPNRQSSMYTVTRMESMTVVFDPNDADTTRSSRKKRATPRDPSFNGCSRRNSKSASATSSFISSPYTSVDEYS
human NK-1 receptor, sequence (P25103 whole entry): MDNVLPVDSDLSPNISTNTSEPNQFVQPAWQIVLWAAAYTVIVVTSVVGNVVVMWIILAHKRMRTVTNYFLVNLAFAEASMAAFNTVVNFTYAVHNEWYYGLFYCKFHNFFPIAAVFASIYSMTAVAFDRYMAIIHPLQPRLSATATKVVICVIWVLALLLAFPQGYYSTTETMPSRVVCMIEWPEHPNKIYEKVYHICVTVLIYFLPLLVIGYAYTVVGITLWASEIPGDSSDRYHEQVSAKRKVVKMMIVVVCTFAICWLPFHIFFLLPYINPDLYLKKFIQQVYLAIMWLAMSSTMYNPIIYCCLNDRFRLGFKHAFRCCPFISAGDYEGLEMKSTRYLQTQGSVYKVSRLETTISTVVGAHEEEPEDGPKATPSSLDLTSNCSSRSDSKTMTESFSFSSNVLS
human NK-2 receptor, sequence (P21452 whole entry): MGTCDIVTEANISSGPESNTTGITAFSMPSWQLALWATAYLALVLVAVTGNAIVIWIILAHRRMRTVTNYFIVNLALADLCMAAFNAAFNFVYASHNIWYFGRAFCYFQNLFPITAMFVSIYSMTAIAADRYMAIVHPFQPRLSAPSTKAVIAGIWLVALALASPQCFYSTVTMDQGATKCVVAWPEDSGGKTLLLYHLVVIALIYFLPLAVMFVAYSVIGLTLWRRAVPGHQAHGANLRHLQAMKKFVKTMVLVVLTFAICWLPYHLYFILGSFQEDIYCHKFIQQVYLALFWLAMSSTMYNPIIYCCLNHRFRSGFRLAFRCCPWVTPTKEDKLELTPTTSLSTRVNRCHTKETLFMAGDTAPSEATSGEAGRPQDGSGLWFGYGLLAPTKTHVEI

On to `CC[C@@H]1c2nnc(-c3nc(C)ns3)n2CCN1C(=O)c1ccc(F)cc1` [Compound 22, (R)-(8-ethyl-3-(3-methyl-1,2,4-thiadiazol-5-yl)-5,6-dihydro-[1,2,4]triazolo[4,3-a]pyrazin-7(8H)-yl)(4-fluorophenyl)methanone], for which the Ki – broadly, the equilibrium dissociation constant of an inhibitor or competing ligand from its target – on human NK-2 receptor is more than 30000 nM; at human NK-3 receptor [1] (setting [3]), 69 nM; at human NK-3 receptor [1] (setting [4]), 69 nM; at human NK-1 receptor it was more than 30000 nM. The “Exposure (% rPPB), bound drug fraction to plasma protein” value (shortened to “Exposure (% rPPB), bound drug fraction”) in the data set on plasma protein amounted to 27%. Also, the IC50 (in general, the concentration that inhibits the measured activity by half) at human NK-3 receptor [2] was 130 nM.

For `Cc1nsc(-c2nnc3n2CCN(C(=O)c2ccc(C#N)cc2)[C@@H]3C)n1` [Compound 29, (R)-4-(8-methyl-3-(3-methyl-1,2,4-thiadiazol-5-yl)-5,6,7,8-tetrahydro-[1,2,4]triazolo[4,3-a]pyrazine-7-carbonyl)benzonitrile], the Ki at human NK-2 receptor was more than 30000 nM; at human NK-3 receptor [1] (setting [3]), 150 nM; on human NK-3 receptor [1] (setting [4]), 150 nM; at human NK-1 receptor, more than 30000 nM. Moreover, the “Exposure (% rPPB), bound drug fraction” value in the data set with plasma protein came out at 10%. Moreover, the IC50 at human NK-3 receptor [2] was found to be 170 nM.

With `Cc1nsc(-c2nnc3n2CCN(C(=O)c2cccc(Cl)c2)[C@@H]3C)n1` [Compound 16, (R)-(3-chlorophenyl)(8-methyl-3-(3-methyl-1,2,4-thiadiazol-5-yl)-5,6-dihydro-[1,2,4]triazolo[4,3-a]pyrazin-7(8H)-yl)methanone], the Ki at human NK-2 receptor was 37000 nM; on human NK-3 receptor [1] (setting [3]) it was 49 nM; at human NK-3 receptor [1] (setting [4]), 49 nM; at human NK-1 receptor, more than 30000 nM. In the data set on plasma protein, the “Exposure (% rPPB), bound drug fraction” value is 36%. Besides, the IC50 at human NK-3 receptor [2] was 71 nM.

On to `Cc1ccc(C(=O)N2CCn3c(-c4nc(C)ns4)nnc3[C@H]2C)cc1` [Compound 19, (R)-(8-methyl-3-(3-methyl-1,2,4-thiadiazol-5-yl)-5,6-dihydro-[1,2,4]triazolo[4,3-a]pyrazin-7(8H)-yl)(p-tolyl)methanone], for which the Ki is more than 30000 nM at human NK-2 receptor, 56 nM on human NK-3 receptor [1] (setting [3]), 56 nM at human NK-3 receptor [1] (setting [4]) and more than 30000 nM at human NK-1 receptor. Further, the “Exposure (% rPPB), bound drug fraction” value with plasma protein is listed as 51%. On human NK-3 receptor [2], the concentration for half-maximal inhibition (IC50) was determined as 110 nM.

With `Cc1noc(-c2nnc3n2CCN(C(=O)c2ccc(F)cc2)[C@@H]3C)n1` [Compound 28, (R)-(4-fluorophenyl)(8-methyl-3-(3-methyl-1,2,4-oxadiazol-5-yl)-5,6-dihydro-[1,2,4]triazolo[4,3-a]pyrazin-7(8H)-yl)methanone], the Ki is more than 30000 nM at human NK-2 receptor, 110 nM at human NK-3 receptor [1] (setting [3]), 110 nM on human NK-3 receptor [1] (setting [4]) and more than 30000 nM at human NK-1 receptor. The “Exposure (% rPPB), bound drug fraction” value with plasma protein stood at 12%. The IC50 at human NK-3 receptor [2] stood at 160 nM.

Turning to `Cc1nsc(-c2nnc3n2CCN(C(=O)c2cccc(F)c2)[C@@H]3C)n1` [Compound 15, (R)-(3-fluorophenyl)(8-methyl-3-(3-methyl-1,2,4-thiadiazol-5-yl)-5,6-dihydro-[1,2,4]triazolo[4,3-a]pyrazin-7(8H)-yl)methanone], the Ki on human NK-2 receptor is more than 30000 nM; on human NK-3 receptor [1] (setting [3]), 45 nM; at human NK-3 receptor [1] (setting [4]) it was 45 nM; at human NK-1 receptor, more than 30000 nM. Besides, in the data set on plasma protein, the “Exposure (% rPPB), bound drug fraction” value was 20%. Besides, the IC50 on human NK-3 receptor [2] is 50 nM.

In the case of `C[C@@H]1c2nnc(-c3nc(C(C)(F)F)no3)n2CCN1C(=O)c1ccc(F)cc1` [Compound 43, (R)-(3-(3-(1,1-difluoroethyl)-1,2,4-oxadiazol-5-yl)-8-methyl-5,6-dihydro-[1,2,4]triazolo[4,3-a]pyrazin-7(8H)-yl)(4-fluorophenyl)methanone], the Ki at human NK-2 receptor is more than 30000 nM; at human NK-3 receptor [1] (setting [3]), 59 nM; on human NK-3 receptor [1] (setting [4]), 59 nM; on human NK-1 receptor, more than 30000 nM. Further, the “Exposure (% rPPB), bound drug fraction” value in the data set on plasma protein was determined as 47%. Also, the IC50 on human NK-3 receptor [2] worked out at 136 nM.

As for `Cc1nsc(-c2nnc3n2CCN(C(=O)c2cc(F)c(F)c(F)c2)C3C)n1` (racemic) [Compound 34, (8-methyl-3-(3-methyl-1,2,4-thiadiazol-5-yl)-5,6-dihydro-[1,2,4]triazolo[4,3-a]pyrazin-7(8H)-yl)(3,4,5-trifluorophenyl)methanone], the Ki on human NK-2 receptor is more than 30000 nM; at human NK-3 receptor [1] (setting [3]) it was 38 nM; on human NK-3 receptor [1] (setting [4]) it was 38 nM; at human NK-1 receptor, more than 30000 nM. Further, in the data set with plasma protein, the “Exposure (% rPPB), bound drug fraction” value was determined as 24%. Further, the IC50 at human NK-3 receptor [2] was 62 nM.

For `Cc1nsc(-c2nnc3n2CCN(C(=O)c2ccc(F)cc2)C3C)n1` (racemic) [Compound 14, (4-fluorophenyl)(8-methyl-3-(3-methyl-1,2,4-thiadiazol-5-yl)-5,6-dihydro-[1,2,4]triazolo[4,3-a]pyrazin-7(8H)-yl)methanone], the Ki at human NK-2 receptor is more than 30000 nM; at human NK-3 receptor [1] (setting [3]), 42 nM; at human NK-3 receptor [1] (setting [4]), 42 nM; at human NK-1 receptor, more than 30000 nM. The “Exposure (% rPPB), bound drug fraction” value with plasma protein came to 21%. Besides, at human NK-3 receptor [2], the concentration for half-maximal inhibition (IC50) was 57 nM.

Regarding `CCc1nsc(-c2nnc3n2CCN(C(=O)c2ccc(F)cc2)C3C)n1` (racemic) [Compound 39, (3-(3-ethyl-1,2,4-thiadiazol-5-yl)-8-methyl-5,6-dihydro-[1,2,4]triazolo[4,3-a]pyrazin-7(8H)-yl)(4-fluorophenyl)methanone], the Ki at human NK-2 receptor is more than 30000 nM; on human NK-3 receptor [1] (setting [3]), 28 nM; on human NK-3 receptor [1] (setting [4]), 28 nM; on human NK-1 receptor, more than 30000 nM. In addition, in the data set on plasma protein, the “Exposure (% rPPB), bound drug fraction” value amounted to 43%. Further, the IC50 at human NK-3 receptor [2] came out at 32 nM.

Take `Cc1nsc(-c2nnc3n2CCN(C(=O)c2ccc(F)c(F)c2)C3C)n1` (racemic) [Compound 32]: the Ki is more than 30000 nM on human NK-2 receptor, 59 nM on human NK-3 receptor [1] (setting [3]), 59 nM at human NK-3 receptor [1] (setting [4]) and more than 30000 nM at human NK-1 receptor. Moreover, the “Exposure (% rPPB), bound drug fraction” value in the data set on plasma protein is 25%. Further, at human NK-3 receptor [2], the IC50 worked out at 44 nM.

`Cc1nsc(-c2nnc3n2CCN(C(=O)c2ccc(F)c(Cl)c2)C3C)n1` (racemic) [Compound 35, (3-chloro-4-fluorophenyl)(8-methyl-3-(3-methyl-1,2,4-thiadiazol-5-yl)-5,6-dihydro-[1,2,4]triazolo[4,3-a]pyrazin-7(8H)-yl)methanone]: the Ki is 30000 nM on human NK-2 receptor, 73 nM at human NK-3 receptor [1] (setting [3]), 73 nM at human NK-3 receptor [1] (setting [4]) and more than 30000 nM at human NK-1 receptor. Further, in the data set on plasma protein, the “Exposure (% rPPB), bound drug fraction” value stood at 52%. Moreover, at human NK-3 receptor [2], the IC50 was found to be 54 nM.
